Experimental data: PubChem BioAssay AID1963986 (Molecular Pharmacology Branch, DTP, NCI, 2024)

Tested on: 171881-019-R-J1-PDC tumor spheroid viability
Experiment: Anticancer human tumor 171881-019-R-J1-PDC patient-derived invasive breast carcinoma cell line growth inhibition [PI3K]
Settings: spheroids with HUVEC and MSC; for IC50: curve of first compound; for viability, T/C: stronger effect = lower value
Procedure, shortened: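 Viability of mixed-cell spheroids was determined after exposure to pairwise combinations, one partner being inavolisib, alpelisib, duvelisib or copanlisib. Highest tested concentration matched clinical Cmax where known and 10 microM where not, descending in half-log steps.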
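Further: spheroids exposed to compound for 7 days before viability read.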
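Wherever viability, T/C is given: 100% = DMSO vehicle-treated spheroids.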

With `CC1(C)CCC(Nc2ncc(C(F)(F)F)c(-c3c[nH]c4c(P(C)(C)=O)c(C#N)ccc34)n2)CN1` (configuration not stated) + Cc1nc(NC(=O)N2CCCC2C(N)=O)sc1-c1ccnc(C(C)(C)C(F)(F)F)c1 the IC50 (second compound 0.0316 µM) was 5340 nM, the IC50 (second compound 0.1 µM) was 4400 nM and the IC50 (second compound 0.316 µM) was 1030 nM. It also gave an IC50 (second compound 1 µM) of under 31.6 nM, an IC50 (second compound 3.16 µM) of under 31.6 nM and an IC50 (second compound 10 µM) of under 31.6 nM. For the same compound, the viability, T/C (second compound 0.0316 µM, first compound 0.0316 µM) was 66.7%, the viability, T/C (second compound 0.0316 µM, first compound 0.1 µM) was 65% and the viability, T/C (second compound 0.0316 µM, first compound 0.316 µM) was 73.8%. For the same compound, the viability, T/C (second compound 0.0316 µM, first compound 1 µM) was 79.6%, the viability, T/C (second compound 0.0316 µM, first compound 3.16 µM) was 77.5% and the viability, T/C (second compound 0.0316 µM, first compound 10 µM) was 22.9%. The viability, T/C (second compound 0.1 µM, first compound 0.0316 µM) was 59.4%, the viability, T/C (second compound 0.1 µM, first compound 0.1 µM) was 65% and the viability, T/C (second compound 0.1 µM, first compound 0.316 µM) was 62.9%. For the same compound, the viability, T/C (second compound 0.1 µM, first compound 1 µM) was 71.4%, the viability, T/C (second compound 0.1 µM, first compound 3.16 µM) was 63.4% and the viability, T/C (second compound 0.1 µM, first compound 10 µM) was 16.3%. The viability, T/C (second compound 0.316 µM, first compound 0.0316 µM) was 46.7%, the viability, T/C (second compound 0.316 µM, first compound 0.1 µM) was 49% and the viability, T/C (second compound 0.316 µM, first compound 0.316 µM) was 49.6%. It also gave a viability, T/C (second compound 0.316 µM, first compound 1 µM) of 55.5%, a viability, T/C (second compound 0.316 µM, first compound 3.16 µM) of 47.8% and a viability, T/C (second compound 0.316 µM, first compound 10 µM) of 7.89%. It also gave a viability, T/C (second compound 1 µM, first compound 0.0316 µM) of 31.4%, a viability, T/C (second compound 1 µM, first compound 0.1 µM) of 30.6% and a viability, T/C (second compound 1 µM, first compound 0.316 µM) of 33.4%. For the same compound, the viability, T/C (second compound 1 µM, first compound 1 µM) was 32.7%, the viability, T/C (second compound 1 µM, first compound 3.16 µM) was 28.7% and the viability, T/C (second compound 1 µM, first compound 10 µM) was 3.22%. For the same compound, the viability, T/C (second compound 3.16 µM, first compound 0.0316 µM) was 15.9%, the viability, T/C (second compound 3.16 µM, first compound 0.1 µM) was 17% and the viability, T/C (second compound 3.16 µM, first compound 0.316 µM) was 17.7%. The viability, T/C (second compound 3.16 µM, first compound 1 µM) was 18.8%, the viability, T/C (second compound 3.16 µM, first compound 3.16 µM) was 13.3% and the viability, T/C (second compound 3.16 µM, first compound 10 µM) was 1.08%. It also gave a viability, T/C (second compound 10 µM, first compound 0.0316 µM) of 4.21%, a viability, T/C (second compound 10 µM, first compound 0.1 µM) of 4.48% and a viability, T/C (second compound 10 µM, first compound 0.316 µM) of 5.01%. The viability, T/C (second compound 10 µM, first compound 1 µM) was 5.05%, the viability, T/C (second compound 10 µM, first compound 3.16 µM) was 2.85% and the viability, T/C (second compound 10 µM, first compound 10 µM) was 0.32%.
